The values that follow are results of earlier work, collected in patent US20240158750A1, “STROMA-FREE NK CELL DIFFERENTIATION FROM HUMAN PLURIPOTENT STEM CELLS” (The Children's Medical Center Corporation, priority 2021, published 2024).

Series [1] deals with T1, G9a/GLP (Homo sapiens, UniProt Q96KQ7).
T1 sequence (Q96KQ7 1-1210): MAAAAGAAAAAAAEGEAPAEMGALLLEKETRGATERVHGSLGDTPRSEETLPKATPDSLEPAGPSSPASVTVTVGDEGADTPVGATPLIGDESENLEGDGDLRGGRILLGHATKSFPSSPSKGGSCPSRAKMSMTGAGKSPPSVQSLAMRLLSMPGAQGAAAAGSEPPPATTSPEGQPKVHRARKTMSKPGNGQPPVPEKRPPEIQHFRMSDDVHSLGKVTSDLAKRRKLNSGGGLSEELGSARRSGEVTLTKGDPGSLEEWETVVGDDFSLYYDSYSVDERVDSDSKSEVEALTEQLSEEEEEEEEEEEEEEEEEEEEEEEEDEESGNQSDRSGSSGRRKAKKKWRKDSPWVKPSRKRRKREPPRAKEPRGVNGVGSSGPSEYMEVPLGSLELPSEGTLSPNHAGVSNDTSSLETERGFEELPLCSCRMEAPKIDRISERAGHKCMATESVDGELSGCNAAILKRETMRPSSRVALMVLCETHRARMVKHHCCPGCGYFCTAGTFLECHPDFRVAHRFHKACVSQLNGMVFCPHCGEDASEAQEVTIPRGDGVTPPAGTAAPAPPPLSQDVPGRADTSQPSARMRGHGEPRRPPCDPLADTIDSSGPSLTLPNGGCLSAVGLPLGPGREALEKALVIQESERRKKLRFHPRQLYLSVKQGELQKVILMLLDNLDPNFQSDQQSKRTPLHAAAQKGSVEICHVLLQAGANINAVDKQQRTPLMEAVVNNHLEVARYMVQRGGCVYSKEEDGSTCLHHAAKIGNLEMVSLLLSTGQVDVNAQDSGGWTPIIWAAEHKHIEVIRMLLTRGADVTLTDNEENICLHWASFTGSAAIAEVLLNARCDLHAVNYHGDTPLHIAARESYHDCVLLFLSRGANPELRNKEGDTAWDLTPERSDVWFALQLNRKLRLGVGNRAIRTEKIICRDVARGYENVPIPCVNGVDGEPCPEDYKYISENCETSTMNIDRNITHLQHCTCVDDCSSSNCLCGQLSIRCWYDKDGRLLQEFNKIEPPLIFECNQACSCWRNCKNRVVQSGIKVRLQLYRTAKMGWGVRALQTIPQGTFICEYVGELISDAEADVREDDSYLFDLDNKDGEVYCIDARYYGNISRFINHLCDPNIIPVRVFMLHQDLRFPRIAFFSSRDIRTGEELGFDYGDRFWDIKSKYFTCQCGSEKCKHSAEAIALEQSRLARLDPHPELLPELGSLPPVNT
Conditions: SAM-competitive; cited from earlier work.

The target of series [2] is T2, JMJD2E (Homo sapiens, UniProt B2RXH2).
T2 sequence (B2RXH2 1-506): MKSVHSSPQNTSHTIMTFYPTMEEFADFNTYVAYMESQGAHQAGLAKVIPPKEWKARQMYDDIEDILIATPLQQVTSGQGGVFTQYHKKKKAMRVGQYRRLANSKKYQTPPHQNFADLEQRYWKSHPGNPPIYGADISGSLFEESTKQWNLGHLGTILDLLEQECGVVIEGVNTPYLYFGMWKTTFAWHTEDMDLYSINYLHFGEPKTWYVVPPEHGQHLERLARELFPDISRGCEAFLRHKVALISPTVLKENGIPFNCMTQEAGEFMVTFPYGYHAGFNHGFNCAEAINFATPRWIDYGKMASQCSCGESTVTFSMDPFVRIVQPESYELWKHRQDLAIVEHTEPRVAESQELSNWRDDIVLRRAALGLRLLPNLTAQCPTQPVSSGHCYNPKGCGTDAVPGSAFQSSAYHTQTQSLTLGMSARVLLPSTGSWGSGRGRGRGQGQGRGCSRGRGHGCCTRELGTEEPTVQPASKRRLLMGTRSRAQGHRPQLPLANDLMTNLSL
Conditions: ECSD enzymatic assay, cited from earlier work.

The target of series [3] is PRMT3 (Homo sapiens, UniProt O60678). The settings on record: PRMT3, inactive, ECSD enzymatic assay; cited from earlier work.
For series [4], the target named is T3, SET7/9 (Homo sapiens, UniProt Q8WTS6).
T3 sequence (Q8WTS6 1-366): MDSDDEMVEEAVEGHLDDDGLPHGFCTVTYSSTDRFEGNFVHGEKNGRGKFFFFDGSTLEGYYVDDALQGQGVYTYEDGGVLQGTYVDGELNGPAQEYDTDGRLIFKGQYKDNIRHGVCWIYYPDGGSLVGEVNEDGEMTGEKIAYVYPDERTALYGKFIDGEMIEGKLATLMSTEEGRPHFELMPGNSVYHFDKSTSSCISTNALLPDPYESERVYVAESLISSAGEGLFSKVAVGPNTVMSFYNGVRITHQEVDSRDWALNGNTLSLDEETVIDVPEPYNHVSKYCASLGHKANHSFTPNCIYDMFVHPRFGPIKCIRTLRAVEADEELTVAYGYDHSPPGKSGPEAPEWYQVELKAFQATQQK
Conditions: SET7/9, inactive, ECSD enzymatic assay; cited from earlier work.

The target in series [5] is SET8/PreSET7 (Homo sapiens, UniProt Q9NQR1). Conditions: SET8/PreSET7, inactive, ECSD enzymatic assay; cited from earlier work.
In series [6] the target is T4, PKMT G9a (Homo sapiens, UniProt Q96KQ7).
T4 sequence (Q96KQ7 1-1210): T1 sequence (Q96KQ7 1-1210)
The settings on record: based on Morrison Ki; cited from earlier work.

Series [7] deals with T5, Lys20-specific PRSET7 (Homo sapiens, UniProt Q9NQR1).
T5 sequence (Q9NQR1 1-393): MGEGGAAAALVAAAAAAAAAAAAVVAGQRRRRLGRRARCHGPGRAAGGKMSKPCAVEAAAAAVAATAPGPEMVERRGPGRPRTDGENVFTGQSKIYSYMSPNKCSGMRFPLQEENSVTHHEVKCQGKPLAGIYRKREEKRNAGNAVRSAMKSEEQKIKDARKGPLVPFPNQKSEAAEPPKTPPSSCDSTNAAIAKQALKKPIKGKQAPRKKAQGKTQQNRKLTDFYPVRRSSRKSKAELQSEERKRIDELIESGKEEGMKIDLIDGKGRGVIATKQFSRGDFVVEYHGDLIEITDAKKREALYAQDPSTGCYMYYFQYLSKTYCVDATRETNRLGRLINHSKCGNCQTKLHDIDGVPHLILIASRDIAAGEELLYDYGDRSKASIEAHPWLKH
Conditions: cited from earlier work.

The subject of series [8] is G9a. The settings on record: cited from earlier work.
For series [9], the target named is T6, Lys4-specific SET7/9 (Homo sapiens, UniProt Q8WTS6).
T6 sequence (Q8WTS6 1-366): T3 sequence (Q8WTS6 1-366)
Conditions: cited from earlier work.

In series [10] the target is T7, DIM5 (Neurospora crassa, UniProt Q8X225).
T7 sequence (Q8X225 1-331): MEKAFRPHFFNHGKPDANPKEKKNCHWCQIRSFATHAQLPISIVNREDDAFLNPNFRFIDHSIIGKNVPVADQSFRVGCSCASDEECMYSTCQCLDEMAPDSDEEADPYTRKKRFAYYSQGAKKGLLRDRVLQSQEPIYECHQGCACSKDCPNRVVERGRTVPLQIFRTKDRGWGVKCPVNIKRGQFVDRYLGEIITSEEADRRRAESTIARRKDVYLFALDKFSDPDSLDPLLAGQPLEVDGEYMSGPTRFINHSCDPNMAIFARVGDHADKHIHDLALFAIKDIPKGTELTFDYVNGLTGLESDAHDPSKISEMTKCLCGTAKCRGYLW
Conditions: cited from earlier work.

Series [11] concerns Lys27-specific EZH2. The settings on record: cited from earlier work.

Chain of PRMT3 (O60678 whole entry, species assumed): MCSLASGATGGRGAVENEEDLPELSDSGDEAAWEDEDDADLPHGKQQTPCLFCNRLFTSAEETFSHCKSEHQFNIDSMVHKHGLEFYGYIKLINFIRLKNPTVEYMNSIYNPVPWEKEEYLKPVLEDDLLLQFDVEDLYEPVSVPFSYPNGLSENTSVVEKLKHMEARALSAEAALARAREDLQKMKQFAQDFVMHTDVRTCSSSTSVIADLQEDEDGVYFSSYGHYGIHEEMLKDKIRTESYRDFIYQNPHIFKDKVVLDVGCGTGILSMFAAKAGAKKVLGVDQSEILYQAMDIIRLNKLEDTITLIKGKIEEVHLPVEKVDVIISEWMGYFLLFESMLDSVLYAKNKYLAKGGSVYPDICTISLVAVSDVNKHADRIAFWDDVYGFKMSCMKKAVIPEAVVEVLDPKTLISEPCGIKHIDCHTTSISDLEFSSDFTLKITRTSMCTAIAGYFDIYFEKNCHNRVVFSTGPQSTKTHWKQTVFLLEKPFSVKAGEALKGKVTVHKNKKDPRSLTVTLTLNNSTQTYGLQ

With `COc1ccc(C(=O)Oc2ccc(CCn3c(NC(=O)c4ccc(C(F)(F)F)cc4)nc4cc(C(=O)O)ccc43)cc2)cc1` [BIX-01338], the effective conc. result in series [1] is “G9a/GLP effective conc. = 15 μM”.

For orientation: IC50 means the concentration that inhibits the measured activity by half. `COc1cc2c(NC3CCN(C)CC3)nc(N3CCCN(C)CC3)nc2cc1OCCOCCN(C)C` [UNC0321]: the selectivity result in [2] (G9a over JMJD2E) is given as “well as JMJD2E (>1000-fold”. Besides, the 50% inhibitory concentration (IC50) in [2] (JMJD2E, inactive) was above 40 µM; in series [3], above 40 µM; in series [4], above 40 µM; in series [5], above 40 µM. The “fold more potent than BIX01294” value in series [6] is around 250 fold.

As to Chaetocin, the IC50 in series [7] is above 90 µM; in series [8], 2.5 µM; in series [9], above 90 µM; in series [10], 3 µM; in [11], above 90 µM.
